For orientation: Ki means the equilibrium dissociation constant of an inhibitor or competing ligand from its target. The low end stands for a stronger hold on the target, the high end for a looser hold on the target.

Results on six compounds are retold here after ChEMBL document CHEMBL1136756, “De novo design, synthesis, and evaluation of novel nonsteroidal phenanthrene ligands for the estrogen receptor” (J Med Chem, 2003).

Estrogen receptor beta, sequence (Q92731 whole entry): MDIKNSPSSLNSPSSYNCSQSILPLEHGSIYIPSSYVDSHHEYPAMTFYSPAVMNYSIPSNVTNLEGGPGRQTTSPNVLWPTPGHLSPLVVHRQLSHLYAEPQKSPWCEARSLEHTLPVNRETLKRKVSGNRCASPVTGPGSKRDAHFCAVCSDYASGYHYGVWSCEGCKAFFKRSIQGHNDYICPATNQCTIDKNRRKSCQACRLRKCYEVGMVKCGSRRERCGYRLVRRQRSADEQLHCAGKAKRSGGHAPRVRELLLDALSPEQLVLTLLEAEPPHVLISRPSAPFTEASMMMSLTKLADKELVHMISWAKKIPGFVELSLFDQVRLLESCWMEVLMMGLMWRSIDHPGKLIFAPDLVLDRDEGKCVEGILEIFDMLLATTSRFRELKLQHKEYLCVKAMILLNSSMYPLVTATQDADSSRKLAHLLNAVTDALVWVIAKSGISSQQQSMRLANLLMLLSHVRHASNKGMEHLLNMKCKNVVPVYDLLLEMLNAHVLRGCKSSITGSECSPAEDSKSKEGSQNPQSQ

In one test the target is T1, Estrogen receptor (Homo sapiens, UniProt P03372).
T1 sequence (P03372 whole entry): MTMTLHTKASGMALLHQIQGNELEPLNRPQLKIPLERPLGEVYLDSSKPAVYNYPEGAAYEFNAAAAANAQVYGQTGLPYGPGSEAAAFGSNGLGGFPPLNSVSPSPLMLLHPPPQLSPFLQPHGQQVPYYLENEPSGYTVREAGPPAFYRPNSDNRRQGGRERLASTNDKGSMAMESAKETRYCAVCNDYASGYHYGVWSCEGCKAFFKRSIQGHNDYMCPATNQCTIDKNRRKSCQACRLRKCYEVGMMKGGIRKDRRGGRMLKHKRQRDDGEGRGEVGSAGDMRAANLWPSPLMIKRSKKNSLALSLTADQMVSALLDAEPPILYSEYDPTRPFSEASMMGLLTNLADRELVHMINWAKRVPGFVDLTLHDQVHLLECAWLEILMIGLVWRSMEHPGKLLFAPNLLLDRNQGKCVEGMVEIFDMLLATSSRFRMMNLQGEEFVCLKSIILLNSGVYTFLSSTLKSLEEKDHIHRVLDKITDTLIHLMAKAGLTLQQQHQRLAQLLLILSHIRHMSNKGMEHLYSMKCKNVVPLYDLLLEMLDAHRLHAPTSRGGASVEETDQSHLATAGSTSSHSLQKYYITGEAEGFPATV
Description: In vitro displacement of 0.5 nM [3H]17-beta-estradiol from human Estrogen receptor alpha
For the compound `C=C(C)c1ccc2c(c1)c(-c1ccc(OCCN3CCCCC3)cc1)cc1cc(O)cc(C)c12`, affinity was put at a Ki of 290 nM.

In turn, `CCc1ccc2c(c1)C(c1ccc(OCCN3CCCCC3)cc1)Cc1cc(O)cc(C)c1-2` (stereo unspecified) displayed a Ki of 8.69 nM.

For `Cc1cc(O)cc2cc(-c3ccc(OCCN4CCCCC4)cc3)c3cc(C(=O)C(C)C)ccc3c12`, the Ki was found to be 490 nM.

Take `CC(=O)c1ccc2c(c1)c(-c1ccc(OCCN3CCCCC3)cc1)cc1cc(O)cc(C)c12`: the Ki is greater than 1000 nM.

In the case of `CC(C)=C(C)c1ccc2c(c1)c(-c1ccc(OCCN3CCCCC3)cc1)cc1cc(O)cc(C)c12`, the affinity, expressed as Ki, was 210 nM. In other words, the sub-micromolar range.

A further test has as its target Estrogen receptor beta (Homo sapiens, UniProt Q92731).
Description: In vitro displacement of 0.5 nM [3H]17-beta-estradiol from human Estrogen receptor beta
Take `C=C(C)c1ccc2c(c1)c(-c1ccc(OCCN3CCCCC3)cc1)cc1cc(O)cc(C)c12`: the Ki was 180 nM. This counts as sub-micromolar.

Regarding `CCc1ccc2c(c1)C(c1ccc(OCCN3CCCCC3)cc1)Cc1cc(O)cc(C)c1-2` (stereo unspecified), the affinity corresponds to a Ki of 190 nM.

Regarding `Cc1cc(O)cc2cc(-c3ccc(OCCN4CCCCC4)cc3)c3cc(C(=O)C(C)C)ccc3c12`, the Ki was greater than 1000 nM.

As to `CC(=O)c1ccc2c(c1)c(-c1ccc(OCCN3CCCCC3)cc1)cc1cc(O)cc(C)c12`, the Ki stood at 630 nM.

`CC(C)=C(C)c1ccc2c(c1)c(-c1ccc(OCCN3CCCCC3)cc1)cc1cc(O)cc(C)c12` showed a Ki of 200 nM.

`Cc1cc(O)cc2cc(-c3ccc(OCCN4CCCCC4)cc3)c3cc(C(C)O)ccc3c12` (stereo unspecified) registered a Ki of 190 nM.
